pIC50: −log10 of the molar value.

IC50 data for five molecules are collected here from BindingDB's records for doi:10.1038/nchembio.481 (CGI Pharmaceuticals, 2011).

Tyrosine-protein kinase BTK, sequence (Q06187 whole entry): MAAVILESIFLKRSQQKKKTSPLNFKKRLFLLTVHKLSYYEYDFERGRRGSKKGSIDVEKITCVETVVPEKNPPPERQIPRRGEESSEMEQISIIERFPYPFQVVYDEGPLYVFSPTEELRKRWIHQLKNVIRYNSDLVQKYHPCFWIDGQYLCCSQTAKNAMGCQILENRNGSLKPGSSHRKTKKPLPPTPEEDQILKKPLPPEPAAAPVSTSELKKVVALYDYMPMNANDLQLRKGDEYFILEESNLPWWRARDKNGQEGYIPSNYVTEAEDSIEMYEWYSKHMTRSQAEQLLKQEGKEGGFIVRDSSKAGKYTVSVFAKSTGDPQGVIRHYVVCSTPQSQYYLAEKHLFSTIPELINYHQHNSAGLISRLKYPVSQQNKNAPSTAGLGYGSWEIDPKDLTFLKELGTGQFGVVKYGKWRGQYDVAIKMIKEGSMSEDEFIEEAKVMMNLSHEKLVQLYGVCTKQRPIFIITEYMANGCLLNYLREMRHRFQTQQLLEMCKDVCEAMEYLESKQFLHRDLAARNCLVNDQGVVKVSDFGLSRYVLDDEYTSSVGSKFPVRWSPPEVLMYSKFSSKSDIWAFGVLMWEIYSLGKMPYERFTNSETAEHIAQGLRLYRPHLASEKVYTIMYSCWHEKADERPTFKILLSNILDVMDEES

This experiment concerns the target Tyrosine-protein kinase BTK (Homo sapiens, UniProt Q06187). The experiment is described as follows: Btk Kinase Assay. Particulars: pH 7.5; 23 °C. From the text: Biochemical assay using Lanthascreen (human, full-lenght, C-terminal v5-His6 expressed in Sf9 cell) assay from Invitrogen.
Broadly, the pIC50 is −log10 of the IC50, conventionally taken in molar units. In turn, `Cc1c(NC(=O)c2cccc(C(C)(C)C)c2)cccc1-c1cn(C)c(=O)c(Nc2ccc(C(=O)N3CCOCC3)cc2)n1` [3-(tert-Butyl)-N-(2-methyl-3-(4-methyl-6-((4-(morpholine-4-carbonyl)phenyl)amino)-5-oxo-4,5-dihydropyrazin-2-yl)phenyl)benzamide, 6] gave a pIC50 of 5.50.
`Cc1c(NCc2ccc(C(C)(C)C)cc2)cccc1-c1cn(C)c(=O)c(Nc2ccc(C(=O)N3CCOCC3)cc2)n1` [5-(3-((4-(tert-Butyl)benzyl)amino)-2-methylphenyl)-1-methyl-3-((4-(morpholine-4-carbonyl)phenyl)amino)pyrazin-2(1H)-one, 5] had a pIC50 of 5.04.
`Cc1c(N)cccc1-c1cn(C)c(=O)c(Nc2ccc(C(=O)N3CCOCC3)cc2)n1` [5-(3-Amino-2-methylphenyl)-1-methyl-3-((4-(morpholine-4-carbonyl)phenyl)amino)pyrazin-2(1H)-one, 3]: the pIC50 is 5.26.
The figure for `Cc1c(NC(=O)c2ccc(C(C)(C)C)nc2)cccc1-c1cn(C)c(=O)c(Nc2ccc(C(=O)N3CCOCC3)cc2)n1` [6-(tert-Butyl)-N-(2-methyl-3-(4-methyl-6-((4-(morpholine-4-carbonyl)phenyl)amino)-5-oxo-4,5-dihydropyrazin-2-yl)phenyl)nicotinamide, 7] is 6.19; for `CC(=O)Nc1cccc(-c2cn(C)c(=O)c(Nc3ccc(C(=O)N4CCOCC4)cc3)n2)c1C` [CID46942382] it is 5.57.
